# Entries after “also recorded” stand apart in the source; their conditions may differ. Read-outs that look alike come from different tables or passages of the source.
# How the values were obtained:
# [1] = test system: SU-DHL-10 cells; assay: Anti-proliferative combination matrix, Cell Titer-Glo, SU-DHL-10; conditions: for synergy characterization (Chou-Talalay): drug combined with Compound 44; for enhancement of Compound 44 potency (fold IC50 shift): drug combined with Compound 44, top dose of drug, 4 days Compound 44 then 3 days combination
# Protocol: (§7) The WSU-DLCL2 and SU-DHL-10 contain the Y641 EZH2 mutation, and the Toledo cell line contains WT EZH2.
# (§8) Increasing doses of drugs were then added to the plates. […] After incubation for an additional 3 days cell viability of WSU-DLCL2 or SU-DHL-10 was measured using Promega Cell Titer-Glo reagent followed by luminescence detection. After 5 days viability of Toledo cells was measured using Promega Cell Titer-Glo reagent followed by luminescence detection.
# (§9) First, raw luminescence values were converted to percent inhibition or fraction affected (Fa) calculated using controls for maximum inhibition and DMSO treated cells for minimum inhibition control located on each plate. Percent inhibition values for each constant ratio of compound combinations were entered into Calcusyn to determine the combination index values.
# [2] = test system: WSU-DLCL2 cells; assay: Anti-proliferative combination matrix, Cell Titer-Glo, WSU-DLCL2; conditions: for synergy characterization (Chou-Talalay): drug combined with Compound 44; for enhancement of Compound 44 potency (fold IC50 shift): drug combined with Compound 44, top dose of drug, 4 days Compound 44 then 3 days combination
# Protocol: as §7, §8, §9
# [3] = test system: Toledo cells; assay: Anti-proliferative combination matrix, Cell Titer-Glo, Toledo; conditions: Toledo (WT EZH2); for combination benefit: drug combined with Compound 44, 6 days Compound 44 then 5 days combination
# Protocol: as §7, §8, §9
# [4] = test system: SUDHL6 human lymphoma cells; assay: Efficacy study in SUDHL6 xenograft model; assay type: in vivo, athymic nude mice; conditions: Compound 44 alone over the 28 day treatment
# Protocol: (§1) The animals were fed ad libitum water (reverse osmosis 1 ppm Cl) and NIH 31 Modified and Irradiated Lab Diet® consisting of 18.0% crude protein, 5.0% crude fat, and 5.0% crude fiber. The mice were housed on irradiated Enrich-o'cobs™ bedding in static microisolators on a 12-hour light cycle at 20-22° C. (68-72° F.) and 40-60% humidity. All procedures comply with the recommendations of the Guide for Care and Use of Laboratory Animals with respect to restraint, husbandry, surgical procedures, feed and fluid regulation, and veterinary care.
# (§2) Human lymphoma cell lines were harvested during mid-log phase growth, and resuspended in PBS with 50% Matrigel™ (BD Biosciences). Each mouse received 1×10^7 cells (0.2 mL cell suspension) subcutaneously in the right flank. Tumors were calipered in two dimensions to monitor growth as the mean volume approached the desired 80-120 mm^3 range. Tumor size, in mm^3, was calculated from: […]
# (§3) Mice were treated at compound doses ranging from 75-600 mg/kg and at TID (3 times a day every 8 h), BID (twice a day every 12 h) or QD (once a day) schedules for various amount of days by oral gavage or injections via the intravenous, intraperitoneal or subcutaneous routes. Each dose was delivered in a volume of 0.2 mL/20 g mouse (10 mL/kg), and adjusted for the last recorded weight of individual animals. […]
# [5] = test system: OCI-LY19 cell line; assay: Cell viability of OCI-LY19 cells, Guava ViaCount and flow cytometry; assay type: cell-based, human; conditions: OCI-LY19 (wild-type EZH2); for cell viability: single agent
# Protocol: (§4) Cell viability was determined 4 days later using Millipore Guava ViaCount reagent and flow cytometry analysis. Percentage of cell viability was normalized to percentage of the DMSO-treated sample.
# [6] = test system: RL cells; assay: Cell viability of RL cells, Guava ViaCount and flow cytometry; assay type: cell-based, human; conditions: RL cells (EZH2 Y641N); for cell viability: single agent
# Protocol: as §4
# [7] = test system: WSU-DLCL2 human lymphoma cells; assay: Efficacy study in WSU-DLCL2 xenograft model; assay type: in vivo; conditions: 28 days
# Protocol: as §1, §2
# (§5) Compounds of Formula (IIa) were stored at room temperature and protected from light. On each treatment day, a fresh compound formulations were prepared by suspending the powders in 0.5% sodium carboxymethylcellulose (NaCMC) and 0.1% Tween® 80 in deionized water. […] Formulations were stored away from light at 4° C. prior to administration.
# Several chemotherapeutica were used in parallel to Epizyme compounds. Cyclophosphamide (Baxter, Lot #016591), was reconstituted to 20 mg/mL with sterile saline and stored at 4° C. A fresh dosing solution was prepared for each dose by dilution with saline. Doxorubicin (Doxorubicin Meiji®, Meiji Pharmaceutical Co. Ltd., 1 mg/mL) was stored at 4° C. and diluted with saline on each treatment day. Vincristine (Hospira, Inc., 1 mg/mL) was diluted with saline on each treatment day. Prednisone (Boehringer Ingelheim GmbH, 1 mg/mL) was diluted with PBS at the beginning of each 5-day dosing cycle.
# Mice were treated at compound doses ranging from 75-600 mg/kg and at TID (3 times a day every 8 h), BID (twice a day every 12 h) or QD (once a day) schedules for various amount of days by oral gavage or injections via the intravenous, intraperitoneal or subcutaneous routes. Each dose was delivered in a volume of 0.2 mL/20 g mouse (10 mL/kg), and adjusted for the last recorded weight of individual animals. The maximal treatment length was 28 days.
# (§6) Treatment efficacy was determined on the last treatment day. MTV(n), the median tumor volume for the number of animals, n, evaluable on the last day, was determined for each group. Percent tumor growth inhibition (% TGI) can be defined several ways. First, the difference between the MTV(n) of the designated control group and the MTV(n) of the drug-treated group is expressed as a percentage of the MTV(n) of the control group: […]
# Another way of calculating % TGI is taking the change of the tumor size from day 1 to day n into account with n being the last treatment day.
# SCID mice were subcutaneously injected with 1×10^7 WSU-DLCL2 human lymphoma cells. […] Tumor volume was measured twice a week until the endpoint of 28 days.
# [8] = Compound 44 plasma concentration in WSU-DLCL2 tumor-bearing mice, LC-MS/MS; conditions: 225 mg/kg BID
# Protocol: On several days during the study mice were sampled in a pre-specified fashion. Sampling included non-terminal bleeds (0.25 mL) from the mandibular vein without anesthesia and full volume blood collection via terminal cardiac puncture under CO2 anesthesia. Blood samples were processed for plasma, with K2-EDTA as anti-coagulant. The plasma samples were frozen at −80° C. and stored prior to bioanalysis of compound levels.
# Plasma samples were obtained on day 28 at 5 minutes prior to the last dose (“trough”) and 3 hours after the last dose (“post”).
# [9] = test system: SUDHL10 human lymphoma cells; assay type: in vivo; conditions: 28 days
# Protocol: as §1, §2, §5
# Several chemotherapeutica were used in parallel to Epizyme compounds. […]
# as §3
# as §6, with “Percent tumor growth inhibition (% TGI) can be defined several ways.” left out
# [10] = test system: H3K27me3; assay: Histone methylation status in WSU-DLCL2 xenograft tumors, Western blot and ELISA; assay type: in vivo, SCID mice; conditions: after 28 days of treatment
# Protocol: Histones were extracted from tumor samples as described above. […] The plates were sealed and incubated overnight at 4° C. The following day, plates were washed 3× with 300 ul/well PBST (PBS+0.05% Tween 20; 10×PBST, KPL #51-14-02) on a Bio Tek plate washer. Plates were blocked with 300 ul/well of diluent (PBS+2% BSA+0.05% Tween 20), incubated at RT for 2 hours, and washed 3× with PBST. All antibodies were diluted in diluent. […] Plates were washed 4× with PBST. For detection, 100 ul/well of TMB substrate (BioFx Laboratories, #TMBS) was added and plates incubated in the dark at RT for 5 min. […] Absorbance at 450 nm was read on SpectaMax M5 Microplate reader.
# [11] = test system: WSU-DLCL2 human lymphoma cells; assay: Cell viability of WSU-DLCL2 cells, Guava ViaCount and flow cytometry; assay type: cell-based; conditions: for cell viability, combination with Compound 44: WSU-DLCL2
# Protocol: The dosage schedule is depicted in FIG. 1A. […] After 4 days, cell viability was determined using Millipore Guava ViaCount Reagent and flow cytometry analysis.
# Cell viability was determined by staining with Millipore Guava ViaCount Reagent and then analyzed by flow cytometry.
# as §4
# [12] = Compound 44 for 4 days, then Compound 44 plus agent for 4 days (FIG. 1A schedule)
compound,measurement,setting,value
Nc1ccn([C@@H]2O[C@H](CO)[C@@H](O)[C@@H]2O)c(=O)n1 [AraC],synergy characterization (Chou-Talalay),[1],Synergism
same,synergy characterization (Chou-Talalay),[2],Synergism
same,combination benefit,[3],no combination benefit; also recorded: No enhancement
N.N.[Cl][Pt][Cl] [Cisplatin],synergy characterization (Chou-Talalay),[1],synergism
same,synergy characterization (Chou-Talalay),[2],Synergism
same,combination benefit,[3],no combination benefit; also recorded: No enhancement
"CCN(c1cc(-c2ccc(CN3CCOCC3)cc2)cc(C(=O)NCc2c(C)cc(C)[nH]c2=O)c1C)C1CCOCC1 [Compound 44, N-((4,6-dimethyl-2-oxo-1,2-dihydropyridin-3-yl)methyl)-5-(ethyl (tetrahydro-2H-pyran-4-yl)amino)-4-methyl-4′-(morpholinomethyl)-[1,1′-biphenyl]-3-carboxamide]",single agent efficacy,[4],not observed
same,cell viability,[5],does not affect cell viability; also recorded: do not show sensitivity
same,cell viability,[6],does not result in a reduction in cell viability
same,% TGI from day 1,[7]; Compound 44 150 mg/kg TID,73%
same,% TGI from day 7,[7]; Compound 44 150 mg/kg TID,86%
same,% TGI from day 1,[7]; Compound 44 225 mg/kg BID,71%
same,% TGI from day 7,[7]; Compound 44 225 mg/kg BID,80%
same,% TGI from day 1,[7]; Compound 44 300 mg/kg BID,57%
same,% TGI from day 7,[7]; Compound 44 300 mg/kg BID,67%
same,% TGI from day 1,[7]; Compound 44 600 mg/kg QD,58%
same,% TGI from day 7,[7]; Compound 44 600 mg/kg QD,70%
same,"Compound 44 plasma level, with CHOP vs single agent","[8]; day 28, 3 hours after the last dose",significantly increased
same,"Compound 44 plasma level, with CHOP vs single agent","[8]; day 28, trough (5 minutes prior to the last dose)",not significantly different
same,% TGI from day 7,[9]; Compound 44 125 mg/kg BID,57%
same,% TGI from day 7,[9]; Compound 44 250 mg/kg BID,113%
same,% TGI from day 7,[9]; Compound 44 500 mg/kg BID,115%
same,"methylation of H3K27 in tumors, ELISA",[10]; H3K27me3 normalized to total H3,inhibited
same,"methylation of H3K27 in tumors, Western blot",[10]; all dosages and dosing schedules,inhibited
same,sensitivity of cell viability,[3]; Compound 44 alone,no sensitivity
same,cell viability,"[11]; single agent, increasing concentrations, WSU-DLCL2 (EZH2 Y641F)",decrease in cell viability; also recorded: reduction of cell growth
C[C@@H]1C[C@H]2[C@@H]3CCC4=CC(=O)C=C[C@]4(C)[C@@]3(F)[C@@H](O)C[C@]2(C)[C@@]1(O)C(=O)CO [Dexamethasone],enhancement of Compound 44 potency (fold IC50 shift),[1],3 fold
same,enhancement of Compound 44 potency (fold IC50 shift),[2],17 fold
COc1cccc2c1C(=O)c1c(O)c3c(c(O)c1C2=O)C[C@@](O)(C(=O)CO)C[C@@H]3O[C@H]1C[C@H](N)[C@H](O)[C@H](C)O1 [Doxorubicin],synergy characterization (Chou-Talalay),[1],Synergism
same,synergy characterization (Chou-Talalay),[2],Synergism
same,combination benefit,[3],no combination benefit; also recorded: No enhancement
same,"cell viability, combination with Compound 44",[11]; [12],did not exhibit reduced cell viability
CO[C@H]1C[C@@H]2CC[C@@H](C)[C@@](O)(O2)C(=O)C(=O)N2CCCC[C@H]2C(=O)O[C@H]([C@H](C)C[C@@H]2CC[C@@H](OCCO)[C@H](OC)C2)CC(=O)[C@H](C)/C=C(\C)[C@@H](O)[C@@H](OC)C(=O)[C@H](C)C[C@H](C)/C=C/C=C/C=C/1C [Everolimus],synergy characterization (Chou-Talalay),[1],Strong synergism
same,synergy characterization (Chou-Talalay),[2],very strong synergism
same,combination benefit,[3],no combination benefit; also recorded: No enhancement
C[C@]12C=CC(=O)C=C1CC[C@@H]1[C@@H]2[C@@H](O)C[C@@]2(C)[C@H]1CC[C@]2(O)C(=O)CO [Prednisolone],"cell viability, combination with Compound 44",[5]; FIG. 1A schedule,does not have an additional or synergistic effect on cell viability
same,cell viability,[5],show sensitivity
same,enhancement of Compound 44 potency (fold IC50 shift),[1],3 fold
same,"cell viability, combination with Compound 44",[6]; FIG. 1A schedule,synergistic effect
same,cell viability,[6],resistant
same,enhancement of Compound 44 potency (fold IC50 shift),[2],7 fold
same,combination benefit,[3],no combination benefit; also recorded: No enhancement
same,"cell viability, combination with Compound 44","[11]; Compound 44 first, then agent alone (FIG. 1B schedule)",additional reduction of cell viability
same,"cell viability, combination with Compound 44",[11]; [12],synergistic reduction in cell viability; also recorded: additional reduction of cell growth; also recorded: reduced cell viability
same,"cell viability, combination with Compound 44","[11]; agent first, then Compound 44 plus agent (FIG. 1C schedule)",did not cause a synergistic effect on cell viability
CC[C@]1(O)C[C@H]2CN(CCc3c([nH]c4ccccc34)[C@@](C(=O)OC)(c3cc4c(cc3OC)N(C=O)[C@H]3[C@@](O)(C(=O)OC)[C@H](OC(C)=O)[C@]5(CC)C=CCN6CC[C@]43[C@@H]65)C2)C1 [Vincristine],"cell viability, combination with Compound 44",[11]; [12],reduced cell viability at the highest concentration Compound 44

# Source: patent publication US11370781B2, “Combination therapy for treating cancer” (Epizyme, Inc., priority 2012, dated 2022)
